Data reported in PubChem BioAssay AID328 (DTP/NCI, 2004).
“And” between values parts separate entries of the source, which are not always exact repeats. Identical values can stand only once. Inconclusive results and toxic doses are left out.

Tested on: BDF1 mice, P388 leukemia ip, median survival T/C
Experiment: NCI In Vivo Anticancer Drug Screen. Data for tumor model P388 Leukemia (intraperitoneal) in B6D2F1 (BDF1) mice
Conditions: endpoint: median survival time, higher = longer survival
Procedure, shortened: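 T/C = treated-group survival ÷ vehicle-control survival; tumour transplanted into mice before dosing.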

[1] = dose: 12.5 mg/kg/injection, schedule: Q01DX009 (ip), vehicle: saline with Tween-80
[2] = dose: 25.0 mg/kg/injection, schedule: Q01DX009 (ip), vehicle: saline with Tween-80
[3] = dose: 50.0 mg/kg/injection, schedule: Q01DX009 (ip), vehicle: saline with Tween-80
[4] = dose: 100.0 mg/kg/injection, schedule: Q01DX009 (ip), vehicle: saline with Tween-80
[5] = dose: 200.0 mg/kg/injection, schedule: Q01DX009 (ip), vehicle: saline with Tween-80
[6] = dose: 100.0 mg/kg/injection, schedule: Q04DX003 (ip), vehicle: saline with Tween-80
[7] = dose: 200.0 mg/kg/injection, schedule: Q04DX003 (ip), vehicle: saline with Tween-80
[8] = dose: 400.0 mg/kg/injection, schedule: Q04DX003 (ip), vehicle: saline with Tween-80
[9] = dose: 100.0 mg/kg/injection, schedule: Q01DX009 (ip), vehicle: saline
[10] = dose: 200.0 mg/kg/injection, schedule: Q01DX009 (ip), vehicle: saline
[11] = dose: 6.25 mg/kg/injection, schedule: Q01DX009 (ip), vehicle: saline with Tween-80
[12] = dose: 6.25 mg/kg/injection, schedule: Q04DX003 (ip), vehicle: saline with Tween-80
[13] = dose: 12.5 mg/kg/injection, schedule: Q04DX003 (ip), vehicle: saline with Tween-80
[14] = dose: 25.0 mg/kg/injection, schedule: Q04DX003 (ip), vehicle: saline with Tween-80
[15] = dose: 100.0 mg/kg/injection, schedule: Q01DX001 (ip), vehicle: saline with Tween-80
[16] = dose: 200.0 mg/kg/injection, schedule: Q01DX001 (ip), vehicle: saline with Tween-80
[17] = dose: 400.0 mg/kg/injection, schedule: Q01DX001 (ip), vehicle: saline with Tween-80
[18] = dose: 25.0 mg/kg/injection, schedule: Q01DX001 (ip), vehicle: saline with Tween-80
[19] = dose: 50.0 mg/kg/injection, schedule: Q01DX001 (ip), vehicle: saline with Tween-80

CCOC(=O)/C=C(\C)C(=O)c1ccc(OC)c(OC)c1OCc1ccccc1
T/C [1]: 100 % of control
T/C [2]: 100 % of control
T/C [3]: 90 % of control
T/C [4]: 90 % of control
T/C [5]: 100 % of control

COc1cc2c(cc1OC)/C(=C1\OC(=O)c3c1ccc1c3OCO1)N(C)CC2
T/C [6]: 100 % of control
T/C [7]: 92 % of control
T/C [8]: 88 % of control

CCC(=O)O[C@H]1CC[C@H]2[C@@H]3[C@H](C)CC4=CC(=O)CC[C@]4(C)[C@H]3CC[C@]12C
T/C [9]: 95 % of control
T/C [10]: 100 % of control
T/C (dose: 400.0 mg/kg/injection, schedule: Q01DX009 (ip), vehicle: saline): 115 % of control

O=C(c1ccccc1)N1CC=Cc2ccccc21
T/C [3]: 105 % of control
T/C [4]: 100 % of control
T/C [5]: 105 % of control

Cc1cc(NCCN(C(C)C)C(C)C)nc(/N=C(\N)Nc2ccc(Cl)c(C(F)(F)F)c2)n1
T/C (dose: 3.8 mg/kg/injection, schedule: Q04DX003 (ip), vehicle: Klucel (hydroxypropylcellulose) (HPC)): 104 % of control
T/C (dose: 4.68 mg/kg/injection, schedule: Q01DX009 (ip), vehicle: Klucel (hydroxypropylcellulose) (HPC)): 95 % of control
T/C (dose: 5.8 mg/kg/injection, schedule: Q04DX003 (ip), vehicle: Klucel (hydroxypropylcellulose) (HPC)): 95 % of control
T/C (dose: 9.37 mg/kg/injection, schedule: Q01DX009 (ip), vehicle: Klucel (hydroxypropylcellulose) (HPC)): 100 % of control
T/C (dose: 18.75 mg/kg/injection, schedule: Q01DX009 (ip), vehicle: Klucel (hydroxypropylcellulose) (HPC)): 104 % of control
T/C (dose: 20.0 mg/kg/injection, schedule: Q04DX003 (ip), vehicle: Klucel (hydroxypropylcellulose) (HPC)): 116 % of control
T/C (dose: 26.0 mg/kg/injection, schedule: Q01DX009 (ip), vehicle: Klucel (hydroxypropylcellulose) (HPC)): 95 % of control
T/C (dose: 26.0 mg/kg/injection, schedule: Q04DX003 (ip), vehicle: Klucel (hydroxypropylcellulose) (HPC)): 106 % of control
T/C (dose: 40.0 mg/kg/injection, schedule: Q04DX003 (ip), vehicle: Klucel (hydroxypropylcellulose) (HPC)): 106 % of control and 116 % of control
T/C (dose: 60.0 mg/kg/injection, schedule: Q04DX003 (ip), vehicle: Klucel (hydroxypropylcellulose) (HPC)): 123 % of control

Cc1nc2nc(N)nc(N)c2nc1Sc1ccc(Cl)cc1
T/C [6]: 91 % of control
T/C [8]: 88 % of control

CCCCCC[N+](CCCCCC)(CCCCCC)CCCCCC
T/C (dose: 3.0 mg/kg/injection, schedule: Q01DX009 (ip), vehicle: saline with Tween-80): 123 % of control
T/C (dose: 6.0 mg/kg/injection, schedule: Q01DX009 (ip), vehicle: saline with Tween-80): 116 % of control and 119 % of control
T/C [11]: 114 % of control
T/C [12]: 108 % of control
T/C [13]: 95 % of control
T/C [14]: 113 % of control

CCCCCCCC(=O)Nc1cc(C(F)(F)F)ccc1Cl
T/C (dose: 100.0 mg/kg/injection, schedule: Q04DX003 (ip), vehicle: other): 100 % of control
T/C (dose: 200.0 mg/kg/injection, schedule: Q04DX003 (ip), vehicle: other): 109 % of control
T/C (dose: 400.0 mg/kg/injection, schedule: Q04DX003 (ip), vehicle: other): 104 % of control

CCCCc1cc(O)c2c(c1O)C(=O)c1ccccc1C2=O
T/C [15]: 104 % of control
T/C [16]: 104 % of control
T/C [17]: 90 % of control

CC1CCCCC12OCCO2 (stereo not drawn)
T/C [3]: 100 % of control
T/C [4]: 113 % of control
T/C [6]: 100 % of control
T/C [5]: 104 % of control
T/C [7]: 109 % of control
T/C [8]: 100 % of control

CCCCCCCC(=O)Oc1c(Cl)c(Cl)c(C#N)c(Cl)c1C#N
T/C [3]: 119 % of control

CCC(=O)Nc1cccc(Cl)c1
T/C [15]: 109 % of control
T/C [16]: 109 % of control
T/C [17]: 90 % of control

Nc1ncc(Cl)c2ccccc12
T/C (dose: 25.0 mg/kg/injection, schedule: Q01DX005 (ip), vehicle: saline with Tween-80): 89 % of control

CCCC#CCOCC(O)CCl (stereo not drawn)
T/C [9]: 104 % of control
T/C [6]: 104 % of control
T/C [10]: 109 % of control
T/C [7]: 108 % of control

C1CSCCO1.[Cu+2].[O-][Cl+3]([O-])([O-])O
T/C [12]: 97 % of control
T/C [13]: 99 % of control
T/C [14]: 108 % of control

COCc1ccc([N+](=O)[O-])cc1
T/C [18]: 101 % of control
T/C [19]: 95 % of control
T/C [15]: 96 % of control and 107 % of control

CCOC(=O)/C=C(/C)SC1=CC(=O)c2ccccc2C1=O
T/C (dose: 1.56 mg/kg/injection, schedule: Q01DX009 (ip), vehicle: saline with Tween-80): 107 % of control and 113 % of control
T/C (dose: 3.13 mg/kg/injection, schedule: Q01DX009 (ip), vehicle: saline with Tween-80): 106 % of control and 107 % of control
T/C [11]: 104 % of control and 117 % of control
T/C [1]: 107 % of control and 115 % of control

O=C(CBr)CC(=O)Nc1ccccc1
T/C [1]: 100 % of control

N=C(N)SCCCCCCCCCCSC(=N)N
T/C [2]: 97 % of control
T/C [3]: 123 % of control

COC(=O)C(Cc1c[nH]c2ccccc12)NC(=O)C(Cc1c[nH]c2ccccc12)NC(=O)OC(C)(C)C (stereo not drawn)
T/C [15]: 90 % of control
T/C [16]: 86 % of control
T/C [17]: 90 % of control

C=CCN1C=CC=C/C1=C\C=C(/C#N)C(=O)OCC
T/C [3]: 99 % of control
T/C [4]: 90 % of control
T/C [5]: 103 % of control

C/C(CC1(O)C(=O)Nc2ccccc21)=N\O (stereo not drawn)
T/C [4]: 100 % of control
T/C [5]: 95 % of control
T/C (dose: 400.0 mg/kg/injection, schedule: Q01DX009 (ip), vehicle: saline with Tween-80): 104 % of control

CC(=O)O[C@@H]1c2c(c3c(=O)c4cccc(O)c4c(=O)c=3c2=[N+]=[N-])[C@H](OC(C)=O)[C@@H](OC(C)=O)[C@]1(C)O
T/C (dose: 3.0 mg/kg/injection, schedule: Q01DX009 (ip), vehicle: Klucel (hydroxypropylcellulose) (HPC)): 118 % of control
T/C (dose: 6.0 mg/kg/injection, schedule: Q01DX009 (ip), vehicle: Klucel (hydroxypropylcellulose) (HPC)): 105 % of control

CCC(SC(CC(=O)O)C(=O)O)C(=O)O (stereo not drawn)
T/C (dose: 12.5 mg/kg/injection, schedule: Q01DX001 (ip), vehicle: saline with Tween-80): 100 % of control
T/C [18]: 99 % of control
T/C [19]: 90 % of control

O=[N+]([O-])c1ccc2c(c1)C(Br)c1ccccc1-2 (stereo not drawn)
T/C (dose: 50.0 mg/kg/injection, schedule: Q01DX009 (ip), vehicle: Klucel (hydroxypropylcellulose) (HPC)): 90 % of control
T/C (dose: 100.0 mg/kg/injection, schedule: Q01DX009 (ip), vehicle: Klucel (hydroxypropylcellulose) (HPC)): 118 % of control
T/C (dose: 200.0 mg/kg/injection, schedule: Q01DX009 (ip), vehicle: Klucel (hydroxypropylcellulose) (HPC)): 118 % of control

Nc1ncnc2c1ccn2C1OC2COP(=O)(O)OC2C1O (stereo not drawn)
T/C (dose: 0.63 mg/kg/injection, schedule: Q01DX010 (ip), vehicle: saline): 100 % of control
T/C (dose: 1.25 mg/kg/injection, schedule: Q01DX010 (ip), vehicle: saline): 110 % of control
T/C (dose: 5.0 mg/kg/injection, schedule: Q01DX010 (ip), vehicle: saline): 150 % of control

CC(=O)N(C)Nc1ccccc1
T/C (dose: 50.0 mg/kg/injection, schedule: Q04DX003 (ip), vehicle: saline with Tween-80): 100 % of control
T/C [6]: 90 % of control and 100 % of control
T/C [7]: 105 % of control

S=C1NC2=S(N=C(Nc3ccccc3)N2c2ccccc2)S1 (stereo not drawn)
T/C [3]: 94 % of control
T/C [4]: 96 % of control
T/C [5]: 93 % of control

CCOC(CCC#N)c1ccccc1 (stereo not drawn)
T/C (dose: 266.0 mg/kg/injection, schedule: Q04DX003 (ip), vehicle: saline with Tween-80): 114 % of control
T/C [8]: 114 % of control
T/C (dose: 600.0 mg/kg/injection, schedule: Q04DX003 (ip), vehicle: saline with Tween-80): 119 % of control

CCC(C)C(=O)/C=C/c1ccccc1 (stereo not drawn)
T/C [3]: 96 % of control
T/C [4]: 107 % of control
T/C [5]: 114 % of control
